Assays:
hM5 receptor = molecular target: T1, hM5 receptor (Homo sapiens, UniProt P08912); assay: Calcium mobilization assay, CHO cells stably expressing hM5; assay type: cell-based
T1 construct: expressed in transfected cells; host or cells: CHO cells (Levey et al., 1991)
T1 sequence (P08912 1-532): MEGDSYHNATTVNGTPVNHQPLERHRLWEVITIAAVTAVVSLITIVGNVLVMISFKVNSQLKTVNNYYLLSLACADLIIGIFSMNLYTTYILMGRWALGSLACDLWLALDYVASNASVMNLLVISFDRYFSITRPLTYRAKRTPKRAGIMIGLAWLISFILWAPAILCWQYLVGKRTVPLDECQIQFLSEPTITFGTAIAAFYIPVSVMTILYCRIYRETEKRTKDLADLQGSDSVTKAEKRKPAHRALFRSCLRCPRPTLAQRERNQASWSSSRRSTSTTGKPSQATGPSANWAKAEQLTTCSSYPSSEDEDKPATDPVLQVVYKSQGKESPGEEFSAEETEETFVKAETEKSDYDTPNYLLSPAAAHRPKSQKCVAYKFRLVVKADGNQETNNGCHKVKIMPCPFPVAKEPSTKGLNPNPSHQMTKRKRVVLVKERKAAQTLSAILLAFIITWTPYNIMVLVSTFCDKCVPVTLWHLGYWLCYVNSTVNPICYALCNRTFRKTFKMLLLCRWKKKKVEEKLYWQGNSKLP
From the text: (§1) Chinese hamster ovary (CHO-K1) cells stably expressing rat (r)M1 were purchased from the American Type Culture Collection and cultured according to their indicated protocol. CHO cells stably expressing human (h)M2, hM3, and hM5 were described previously (Levey et al., 1991); hM1 and hM4 cDNAs were purchased from Missouri S&T cDNA Resource; rM4 cDNA was provided by T. I. Bonner (National Institutes of Health, Bethesda, Md.). hM1, hM4, and rM4 cDNAs were used to stably transfect CHO-K1 cells purchased from the American Type Culture Collection using Lipofectamine2000. […]
(§2) For low throughput measurement of agonist-evoked increases in intracellular calcium, CHO-K1 cells stably expressing muscarinic receptors were plated in 100 μL of growth medium at 5×10^4 (rM1, hM3, and hM5) or 6×10^4 cells per well (rM1 Y381A, hM2, and rM4) in Costar 96-well black-walled, tissue culture (TC)-treated, clear-bottom plates (Fisher). […] For calcium fluorescence measurements, CRCs of compounds (50 μl, 2×) were added 19 s after the beginning of data collection via a Flexstation II (Molecular Devices, Sunnyvale, Calif.). Fluorescence imaging continued for a total of 130 s acquisition time using an excitation wavelength of 488 nm, an emission wavelength of 525 nm, and a cutoff wavelength of 515 nm. […]

hM3 receptor = molecular target: T2, hM3 receptor (Homo sapiens, UniProt P20309); assay: Calcium mobilization assay, CHO cells stably expressing hM3; assay type: cell-based
T2 construct: expressed in transfected cells; host or cells: CHO cells (Levey et al., 1991)
From the text: as §1, §2

T2 sequence (P20309 whole entry): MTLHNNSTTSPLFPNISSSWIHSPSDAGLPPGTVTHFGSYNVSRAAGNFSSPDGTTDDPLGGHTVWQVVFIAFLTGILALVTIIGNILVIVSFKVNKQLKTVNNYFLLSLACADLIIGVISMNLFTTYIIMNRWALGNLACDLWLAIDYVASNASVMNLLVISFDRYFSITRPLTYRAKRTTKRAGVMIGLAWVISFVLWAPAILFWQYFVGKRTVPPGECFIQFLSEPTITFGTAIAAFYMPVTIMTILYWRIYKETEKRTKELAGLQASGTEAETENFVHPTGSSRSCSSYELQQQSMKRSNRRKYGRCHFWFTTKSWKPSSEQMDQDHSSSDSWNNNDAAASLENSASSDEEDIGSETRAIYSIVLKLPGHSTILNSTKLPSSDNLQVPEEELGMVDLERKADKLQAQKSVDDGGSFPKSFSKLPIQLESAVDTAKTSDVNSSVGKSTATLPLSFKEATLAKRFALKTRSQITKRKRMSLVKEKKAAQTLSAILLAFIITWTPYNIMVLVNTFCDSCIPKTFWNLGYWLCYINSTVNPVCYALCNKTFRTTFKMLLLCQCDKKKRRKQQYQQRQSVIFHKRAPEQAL

SMILES | EC50 (hM5 receptor) [µM] | EC50 (hM3 receptor) [µM]
CCOC(=O)N1[C@@H]2CC[C@H]1C[C@H](NCCNC(=O)c1ccccc1)C2 [Example 26, ethyl 3-((3-exo)-(2-benzamidoethyl)amino)-8-azabicyclo[3.2.1]octane-8-carboxylate] | > 10 | > 10
CCOC(=O)N1[C@@H]2CC[C@H]1C[C@@H](NCCNC(=O)c1ccccc1)C2 [Example 27, ethyl 3-((3-endo)-(2-benzamidoethyl)amino)-8-azabicyclo[3.2.1]octane-8-carboxylate] | ~10 | ~10

Source: patent US8697691B2, “Alkyl 3-((2-amidoethyl)amino)-8-azabicyclo[3.2.1]octane-8-carboxylate analogs as selective M1 agonists and methods of making and using same” (Vanderbilt University, priority 2009, dated 2014)
